Converted amounts (≈) assume the structure as drawn.
How the values were obtained:
Format in all cases: cell-based
[1] = tested on: HCT15 (colon adenocarcinoma); experiment: In vitro cytotoxicity, sulforhodamine B (SRB) method, HCT15; conditions: Homo sapiens; HCT-15, SRB method; read-out: cytotoxicity (ED50) HCT-15
Procedure: (§1) The chalcone derivatives of the present invention were evaluated for in vitro cytotoxicity against human carcinoma cell lines using a sulforhodamine B (SRB) method, which was developed in 1989 by the National Cancer Institute (NCI), USA.
(§2) HCT15 (colon adenocarcinoma; ATCC CCL-225), PC-3 (prostate adenocarcinoma; ATCC CRL-1435), and A-549 (lung carcinoma; ATCC CCL-185) cell lines were used. All of these carcinoma cells were sub-cultured at the Korean Research Institute of Bioscience and Biotechnology (KRIBB), Korea.
(§3) The human carcinoma cell lines were cultured in 10% FCS-containing RPMI 1640 medium (Gibco Cat. No. 31800) in an incubator at 37° C. under 5% CO2, and sub-cultured twice per week.
(§4) Cells were detached from the attached surface using 0.25% Trypsin (Sigma) and 3 mM CDTA (1,2-cyclohexane diamine tetraacetic acid, Sigma) in phosphate buffered saline (PBS, Sigma).
(§5) Compounds to be tested (the chalcone derivatives set forth in Table 1) were dissolved in a small amount of dimethylsulfoxide (DMSO, Sigma), and diluted in culture medium to a desired concentration. The final concentration of DMSO was less than 0.5%. The diluted compounds (final concentration: 30, 10, 3, 1 and 0.3 μg/ml) were sterilized through a 0.22-μm microfilter (Millipore). The cytotoxicity of the compounds to human carcinoma cell lines was assessed using a typical SRB method.

[2] = tested on: A-549 (lung carcinoma); experiment: In vitro cytotoxicity, sulforhodamine B (SRB) method, A-549; conditions: Homo sapiens, A549; A-549, SRB method; read-out: cytotoxicity (ED50) A-549
Procedure: as §1, §2, §3, §4, §5

[3] = tested on: PC-3 (prostate adenocarcinoma); experiment: In vitro cytotoxicity, sulforhodamine B (SRB) method, PC-3; conditions: Homo sapiens; PC-3, SRB method; read-out: cytotoxicity (ED50) PC-3
Procedure: as §1, §2, §3, §4, §5

## Cc1ccc(S(=O)(=O)Nc2ccc(C(=O)/C=C/c3cccc(O)c3)cc2)cc1 [Compound 2, 4′-(p-toluenesulfonylamino)-3-hydroxychalcone]
[1]
  IC50: 37 mg/L (≈ 94 µM)
[2]
  IC50: 36 mg/L (≈ 91.5 µM)
[3]
  IC50: 39 mg/L (≈ 99.1 µM)

## Cc1ccc(S(=O)(=O)Nc2ccc(C(=O)/C=C/c3ccccc3O)cc2)cc1 [Compound 3, 4′-(p-toluenesulfonylamino)-2-hydroxychalcone]
[1]
  IC50: 40 mg/L (≈ 102 µM)
[2]
  IC50: 35 mg/L (≈ 89 µM)
[3]
  IC50: 37 mg/L (≈ 94 µM)

## Cc1ccc(S(=O)(=O)Nc2cccc(C(=O)/C=C/c3ccc(O)cc3)c2)cc1 [Compound 4, 3′-(p-toluenesulfonylamino)-4-hydroxychalcone]
[1]
  IC50: 38 mg/L (≈ 96.6 µM)
[2]
  IC50: 34 mg/L (≈ 86.4 µM)
[3]
  IC50: 37 mg/L (≈ 94 µM)

## Cc1ccc(S(=O)(=O)Nc2ccccc2C(=O)/C=C/c2ccc(O)cc2)cc1 [Compound 5, 2′-(p-toluenesulfonylamino)-4-hydroxychalcone]
[1]
  IC50: 42 mg/L (≈ 107 µM)
[2]
  IC50: 40 mg/L (≈ 102 µM)
[3]
  IC50: 47 mg/L (≈ 119 µM)

## O=C(/C=C/c1ccc(O)cc1)c1ccc(NS(=O)(=O)c2ccc(O)cc2)cc1 [Compound 6, 4′-(p-hydroxybenzenesulfonylamino)-4-hydroxychalcone]
[1]
  IC50: 37 mg/L (≈ 93.6 µM)
[2]
  IC50: 41 mg/L (≈ 104 µM)
[3]
  IC50: 33 mg/L (≈ 83.5 µM)

## O=C(/C=C/c1cccc(O)c1)c1ccc(NS(=O)(=O)c2ccc(O)cc2)cc1 [Compound 7, 4′-(p-hydroxybenzenesulfonylamino)-3-hydroxychalcone]
[1]
  IC50: 33 mg/L (≈ 83.5 µM)
[2]
  IC50: 30 mg/L (≈ 75.9 µM)
[3]
  IC50: 37 mg/L (≈ 93.6 µM)

## O=C(/C=C/c1ccccc1O)c1ccc(NS(=O)(=O)c2ccc(O)cc2)cc1 [Compound 8, 4′-(p-hydroxybenzenesulfonylamino)-2-hydroxychalcone]
[1]
  IC50: 30 mg/L (≈ 75.9 µM)
[2]
  IC50: 31 mg/L (≈ 78.4 µM)
[3]
  IC50: 34 mg/L (≈ 86 µM)

## O=C(/C=C/c1ccc(O)cc1)c1cccc(NS(=O)(=O)c2ccc(O)cc2)c1 [Compound 9, 3′-(p-hydroxybenzenesulfonylamino)-4-hydroxychalcone]
[1]
  IC50: 24 mg/L (≈ 60.7 µM)
[2]
  IC50: 40 mg/L (≈ 101 µM)
[3]
  IC50: 31 mg/L (≈ 78.4 µM)

## O=C(/C=C/c1cccc(O)c1)c1cccc(NS(=O)(=O)c2ccc(O)cc2)c1 [Compound 10, 3′-(p-hydroxybenzenesulfonylamino)-3-hydroxychalcone]
[1]
  IC50: 30 mg/L (≈ 75.9 µM)
[2]
  IC50: 30 mg/L (≈ 75.9 µM)
[3]
  IC50: 32 mg/L (≈ 80.9 µM)

## O=C(/C=C/c1ccccc1O)c1cccc(NS(=O)(=O)c2ccc(O)cc2)c1 [Compound 11, 3′-(p-hydroxybenzenesulfonylamino)-2-hydroxychalcone]
[1]
  IC50: 39 mg/L (≈ 98.6 µM)
[2]
  IC50: 38 mg/L (≈ 96.1 µM)
[3]
  IC50: 41 mg/L (≈ 104 µM)

## O=C(/C=C/c1ccc(O)cc1)c1ccccc1NS(=O)(=O)c1ccc(O)cc1 [Compound 12, 2′-(p-hydroxybenzenesulfonylamino)-4-hydroxychalcone]
[1]
  IC50: 37 mg/L (≈ 93.6 µM)
[2]
  IC50: 35 mg/L (≈ 88.5 µM)
[3]
  IC50: 37 mg/L (≈ 93.6 µM)

## O=C(/C=C/c1cccc(O)c1)c1ccccc1NS(=O)(=O)c1ccc(O)cc1 [Compound 13, 2′-(p-hydroxybenzenesulfonylamino)-3-hydroxychalcone]
[1]
  IC50: 38 mg/L (≈ 96.1 µM)
[2]
  IC50: 36 mg/L (≈ 91 µM)
[3]
  IC50: 41 mg/L (≈ 104 µM)

## O=C(/C=C/c1ccccc1O)c1ccccc1NS(=O)(=O)c1ccc(O)cc1 [Compound 14, 2′-(p-hydroxybenzenesulfonylamino)-2-hydroxychalcone]
[1]
  IC50: 38 mg/L (≈ 96.1 µM)
[2]
  IC50: 31 mg/L (≈ 78.4 µM)
[3]
  IC50: 29 mg/L (≈ 73.3 µM)

## O=C(/C=C/c1ccc(O)cc1)c1ccc(NS(=O)(=O)c2cccc(O)c2)cc1 [Compound 15, 4′-(m-hydroxybenzenesulfonylamino)-4-hydroxychalcone]
[1]
  IC50: 33 mg/L (≈ 83.5 µM)
[2]
  IC50: 43 mg/L (≈ 109 µM)
[3]
  IC50: 41 mg/L (≈ 104 µM)

## O=C(/C=C/c1cccc(O)c1)c1ccc(NS(=O)(=O)c2cccc(O)c2)cc1 [Compound 16, 4′-(m-hydroxybenzenesulfonylamino)-3-hydroxychalcone]
[1]
  IC50: 37 mg/L (≈ 93.6 µM)
[2]
  IC50: 33 mg/L (≈ 83.5 µM)
[3]
  IC50: 47 mg/L (≈ 119 µM)

## O=C(/C=C/c1ccccc1O)c1ccc(NS(=O)(=O)c2cccc(O)c2)cc1 [Compound 17, 4′-(m-hydroxybenzenesulfonylamino)-2-hydroxychalcone]
[1]
  IC50: 32 mg/L (≈ 80.9 µM)
[2]
  IC50: 33 mg/L (≈ 83.5 µM)
[3]
  IC50: 44 mg/L (≈ 111 µM)

## O=C(/C=C/c1ccc(O)cc1)c1cccc(NS(=O)(=O)c2cccc(O)c2)c1 [Compound 18, 3′-(m-hydroxybenzenesulfonylamino)-4-hydroxychalcone]
[1]
  IC50: 33 mg/L (≈ 83.5 µM)
[2]
  IC50: 31 mg/L (≈ 78.4 µM)
[3]
  IC50: 39 mg/L (≈ 98.6 µM)

## O=C(/C=C/c1cccc(O)c1)c1cccc(NS(=O)(=O)c2cccc(O)c2)c1 [Compound 19, 3′-(m-hydroxybenzenesulfonylamino)-3-hydroxychalcone]
[1]
  IC50: 38 mg/L (≈ 96.1 µM)
[2]
  IC50: 47 mg/L (≈ 119 µM)
[3]
  IC50: 53 mg/L (≈ 134 µM)

## O=C(/C=C/c1ccccc1O)c1cccc(NS(=O)(=O)c2cccc(O)c2)c1 [Compound 20, 3′-(m-hydroxybenzenesulfonylamino)-2-hydroxychalcone]
[1]
  IC50: 40 mg/L (≈ 101 µM)
[2]
  IC50: 35 mg/L (≈ 88.5 µM)
[3]
  IC50: 39 mg/L (≈ 98.6 µM)

## O=C(/C=C/c1ccc(O)cc1)c1ccccc1NS(=O)(=O)c1cccc(O)c1 [Compound 21, 2′-(m-hydroxybenzenesulfonylamino)-4-hydroxychalcone]
[1]
  IC50: 31 mg/L (≈ 78.4 µM)
[2]
  IC50: 39 mg/L (≈ 98.6 µM)
[3]
  IC50: 43 mg/L (≈ 109 µM)

## O=C(/C=C/c1cccc(O)c1)c1ccccc1NS(=O)(=O)c1cccc(O)c1 [Compound 22, 2′-(m-hydroxybenzenesulfonylamino)-3-hydroxychalcone]
[1]
  IC50: 28 mg/L (≈ 70.8 µM)
[2]
  IC50: 27 mg/L (≈ 68.3 µM)
[3]
  IC50: 45 mg/L (≈ 114 µM)

## O=C(/C=C/c1ccccc1O)c1ccccc1NS(=O)(=O)c1cccc(O)c1 [Compound 23, 2′-(m-hydroxybenzenesulfonylamino)-2-hydroxychalcone]
[1]
  IC50: 35 mg/L (≈ 88.5 µM)
[2]
  IC50: 31 mg/L (≈ 78.4 µM)
[3]
  IC50: 37 mg/L (≈ 93.6 µM)

## O=C(/C=C/c1ccc(O)cc1)c1ccc(NS(=O)(=O)c2ccc(F)cc2)cc1 [Compound 24, 4′-(p-fluorobenzensulfonylamino)-4-hydroxychalcone]
[1]
  IC50: 55 mg/L (≈ 138 µM)
[2]
  IC50: 50 mg/L (≈ 126 µM)
[3]
  IC50: 51 mg/L (≈ 128 µM)

## O=C(/C=C/c1ccc(O)cc1)c1ccc(NS(=O)(=O)c2cccc(F)c2)cc1 [Compound 25, 4′-(m-fluorobenzensulfonylamino)-4-hydroxychalcone]
[1]
  IC50: 54 mg/L (≈ 136 µM)
[2]
  IC50: 51 mg/L (≈ 128 µM)
[3]
  IC50: 57 mg/L (≈ 143 µM)

## O=C(/C=C/c1ccc(O)cc1)c1ccc(NS(=O)(=O)c2ccccc2F)cc1 [Compound 26, 4′-(o-fluorobenzensulfonylamino)-4-hydroxychalcone]
[1]
  IC50: 22 mg/L (≈ 55.4 µM)
[2]
  IC50: 20 mg/L (≈ 50.3 µM)
[3]
  IC50: 28 mg/L (≈ 70.5 µM)

## O=C(/C=C/c1ccc(O)cc1)c1ccc(NS(=O)(=O)c2ccc([N+](=O)[O-])cc2)cc1 [Compound 27, 4′-(p-nitrobenzensulfonylamino)-4-hydroxychalcone]
[1]
  IC50: 41 mg/L (≈ 96.6 µM)
[2]
  IC50: 34 mg/L (≈ 80.1 µM)
[3]
  IC50: 47 mg/L (≈ 111 µM)

## O=C(/C=C/c1ccc(O)cc1)c1ccc(NS(=O)(=O)c2cccc([N+](=O)[O-])c2)cc1 [Compound 28, 4′-(m-nitrobenzensulfonylamino)-4-hydroxychalcone]
[1]
  IC50: 54 mg/L (≈ 127 µM)
[2]
  IC50: 59 mg/L (≈ 139 µM)
[3]
  IC50: 57 mg/L (≈ 134 µM)

## O=C(/C=C/c1ccc(O)cc1)c1ccc(NS(=O)(=O)c2ccccc2[N+](=O)[O-])cc1 [Compound 29, 4′-(o-nitrobenzensulfonylamino)-4-hydroxychalcone]
[1]
  IC50: 29 mg/L (≈ 68.3 µM)
[2]
  IC50: 37 mg/L (≈ 87.2 µM)
[3]
  IC50: 21 mg/L (≈ 49.5 µM)

## Nc1ccc(S(=O)(=O)Nc2ccc(C(=O)/C=C/c3ccc(O)cc3)cc2)cc1 [Compound 30, 4′-(p-aminobenzensulfonylamino)-4-hydroxychalcone]
[1]
  IC50: 52 mg/L (≈ 132 µM)
[2]
  IC50: 50 mg/L (≈ 127 µM)
[3]
  IC50: 59 mg/L (≈ 150 µM)

## Nc1cccc(S(=O)(=O)Nc2ccc(C(=O)/C=C/c3ccc(O)cc3)cc2)c1 [Compound 31, 4′-(m-aminobenzensulfonylamino)-4-hydroxychalcone]
[1]
  IC50: 24 mg/L (≈ 60.8 µM)
[2]
  IC50: 34 mg/L (≈ 86.2 µM)
[3]
  IC50: 27 mg/L (≈ 68.4 µM)

## Nc1ccccc1S(=O)(=O)Nc1ccc(C(=O)/C=C/c2ccc(O)cc2)cc1 [Compound 32, 4′-(o-aminobenzensulfonylamino)-4-hydroxychalcone]
[1]
  IC50: 47 mg/L (≈ 119 µM)
[2]
  IC50: 45 mg/L (≈ 114 µM)
[3]
  IC50: 41 mg/L (≈ 104 µM)

## O=C(/C=C/c1ccc(O)cc1)c1ccc(NS(=O)(=O)c2ccccc2)cc1 [Compound 33, 4′-(benzensulfonylamino)-4-hydroxychalcone]
[1]
  IC50: 47 mg/L (≈ 124 µM)
[2]
  IC50: 45 mg/L (≈ 119 µM)
[3]
  IC50: 42 mg/L (≈ 111 µM)

## CS(=O)(=O)Nc1ccc(C(=O)/C=C/c2ccc(O)cc2)cc1 [Compound 34, 4′-(methanesulfonylamino)-4-hydroxychalcone]
[1]
  IC50: 54 mg/L (≈ 170 µM)
[2]
  IC50: 74 mg/L (≈ 233 µM)
[3]
  IC50: 64 mg/L (≈ 202 µM)

## Cc1ccc(S(=O)(=O)Oc2ccc(C(=O)/C=C/c3ccc(O)cc3)cc2)cc1 [Compound 35, 4′-(p-toluenesulfonate)-4-hydroxychalcone]
[1]
  IC50: 51 mg/L (≈ 129 µM)
[2]
  IC50: 47 mg/L (≈ 119 µM)
[3]
  IC50: 57 mg/L (≈ 145 µM)

## O=C(/C=C/c1ccc(O)cc1)c1ccc(OS(=O)(=O)c2ccc(F)cc2)cc1 [Compound 36, 4′-(p-fluorobenzenesulfonate)-4-hydroxychalcone]
[1]
  IC50: 48 mg/L (≈ 120 µM)
[2]
  IC50: 41 mg/L (≈ 103 µM)
[3]
  IC50: 39 mg/L (≈ 97.9 µM)

## O=C(/C=C/c1ccc(O)cc1)c1ccc(OS(=O)(=O)c2cccc(F)c2)cc1 [Compound 37, 4′-(m-fluorobenzenesulfonate)-4-hydroxychalcone]
[1]
  IC50: 34 mg/L (≈ 85.3 µM)
[2]
  IC50: 37 mg/L (≈ 92.9 µM)
[3]
  IC50: 27 mg/L (≈ 67.8 µM)

Source: US9072698B2, “Method for screening anti-cancer compounds inhibiting function of TM4SF5 and anti-cancer composition containing chalcone compounds” (Seoul National University Industry Foundation, priority 2006, dated 2015)
